# Measured values taken from patent US9012502B2, “Cancer heat therapy-enhancing agent” (SBI Pharmaceuticals Co., Ltd., priority 2010, dated 2015).
# Tests used:
# Format in all cases: cell-based
# [1] = system: human cervical cancer-derived cell line HeLa; test: Hyperthermia sensitivity test using trypan blue reagent
# Description: (§1) A colon cancer-derived cell line Caco-2, a human hepatoma-derived cell line HepG2, a human gastric cancer-derived cell line KatoIII, and a human cervical cancer-derived cell line HeLa were used as cancer cell lines. A human embryonic kidney cell line HEK293 was used as cells transformed so as to overgrow like cancer cells. A human normal diploid fibroblast line WI-38, a murine fibroblast-like cell line NIH3T3, and a human embryonic lung-derived normal fibroblast MRCS were used as normal cells. Each of these cells was cultured at 37 or 42° C. for 24 hours in a DME medium containing 10% FBS and 5-ALA at a concentration of 0, 0.5, 1, or 2 mM, and treated with trypsin for cell harvest. Then, equal volumes of the harvested cell-containing solution and a trypan blue reagent were mixed, and the number of the cells was counted with a hemocytometer to calculate the fraction of dead cells (cells stained with trypan blue) (%; percent cell death).
# [2] = system: human hepatoma-derived cell line HepG2; test: as above; conditions: for fraction of dead cells (%), increase compared with 5-ALA-free cells: 42° C.
# Description: as §1
# [3] = system: human embryonic lung-derived normal fibroblast MRCS; test: as above; conditions: 42° C.
# Description: as §1
# [4] = system: human embryonic kidney cell line HEK293; test: as above; conditions: for fraction of dead cells (%), increase compared with 5-ALA-free cells: 42° C.
# Description: as §1
# [5] = system: murine fibroblast-like cell line NIH3T3; test: as above; conditions: normal cells NIH3T3, 42° C.
# Description: as §1
# [6] = system: human gastric cancer-derived cell line KatoIII; test: as above
# Description: as §1
# [7] = system: human normal diploid fibroblast line WI-38; test: as above; conditions: normal cells WI-38, 42° C.
# Description: as §1
# [8] = system: colon cancer-derived cell line Caco-2; test: as above; conditions: for fraction of dead cells (%), increase compared with 5-ALA-free cells: 42° C.
# Description: as §1
# [9] = system: transformed human embryonic kidney cell line HEK293; test: Measuring intracellular PpIX concentration by HPLC; conditions: for intracellular PpIX concentration, increase compared with 5-ALA-free cells: 42° C. for 24 hours
# Protocol: These two types of cells were cultured at 37 or 42° C. for 24 hours in a DME medium containing 10% FBS and 5-ALA at a concentration of 0, 0.5, 1, or 2 mM. Next, the cells were harvested using trypsin treatment. Then, the number of cells contained in a measurement sample was adjusted using a hemocytometer at 1×10^4. After that, the cells were lysed with NaOH, and treated with a DMF solution (i.e., a mixture of N,N-dimethylformamide:2-propanol=100:1). The resulting cell lysate was centrifuged at 13,000 rpm and 4° C. for 10 minutes to collect a supernatant. Subsequently, the supernatant was reacted at room temperature for 24 hours. Finally, the resulting supernatant was used as a measurement sample, and was subjected to a PpIX concentration measurement using HPLC.
# [10] = 37° C., each concentration of 5-ALA
structure (smiles),measurement,setting,value
"NCC(=O)CCC(=O)O [5-ALA, 5-aminolevulinic acid]",fraction of dead cells (in words),[1]; [10],did not increase
same,fraction of dead cells (in words),[1]; 42° C.,markedly increased depending on the 5-ALA concentration
same,"fraction of dead cells (%), increase compared with 5-ALA-free cells","[2]; HepG2, 0.5 mM 5-ALA",about 1.1 times
same,"fraction of dead cells (%), increase compared with 5-ALA-free cells","[2]; HepG2, 1.0 mM 5-ALA",about 1.35 times
same,"fraction of dead cells (%), increase compared with 5-ALA-free cells","[2]; HepG2, 2.0 mM 5-ALA",about 1.5 times
same,fraction of dead cells (in words),"[2]; HepG2, 37° C., each concentration of 5-ALA",did not increase
same,fraction of dead cells (in words),"[2]; HepG2, 42° C.",markedly increased depending on the 5-ALA concentration
same,increase in the fraction of dead cells depending on the 5-ALA concentration (in words),[3],no increase
same,"fraction of dead cells (%), increase compared with 5-ALA-free cells","[4]; HEK293, 0.5 mM 5-ALA",about 1.6 times
same,"fraction of dead cells (%), increase compared with 5-ALA-free cells","[4]; HEK293, 1.0 mM 5-ALA",about 2.0 times
same,"fraction of dead cells (%), increase compared with 5-ALA-free cells","[4]; HEK293, 2.0 mM 5-ALA",about 3.5 times
same,fraction of dead cells (in words),"[4]; HEK293, 37° C., each concentration of 5-ALA",did not increase
same,fraction of dead cells (in words),"[4]; HEK293, 42° C.",markedly increased depending on the 5-ALA concentration
same,increase in the fraction of dead cells depending on the 5-ALA concentration (in words),[5],no increase
same,"fraction of dead cells (%), increase compared with 5-ALA-free cells","[6]; 0.5 mM 5-ALA, 42° C.",about 1.8 times
same,"fraction of dead cells (%), increase compared with 5-ALA-free cells","[6]; 1.0 mM 5-ALA, 42° C.",about 1.8 times
same,"fraction of dead cells (%), increase compared with 5-ALA-free cells","[6]; 2.0 mM 5-ALA, 42° C.",about 1.8 times
same,fraction of dead cells (in words),[6]; [10],did not increase
same,fraction of dead cells (in words),[6]; 42° C.,markedly increased depending on the 5-ALA concentration
same,increase in the fraction of dead cells depending on the 5-ALA concentration (in words),[7],no increase
same,"fraction of dead cells (%), increase compared with 5-ALA-free cells","[8]; Caco-2, 0.5 mM 5-ALA",about 1.2 times
same,"fraction of dead cells (%), increase compared with 5-ALA-free cells","[8]; Caco-2, 1.0 mM 5-ALA",about 1.7 times
same,"fraction of dead cells (%), increase compared with 5-ALA-free cells","[8]; Caco-2, 2.0 mM 5-ALA",about 1.6 times
same,fraction of dead cells (in words),"[8]; Caco-2, 37° C., each concentration of 5-ALA",did not increase
same,fraction of dead cells (in words),"[8]; Caco-2, 42° C.",markedly increased depending on the 5-ALA concentration
same,"intracellular PpIX concentration, increase compared with 5-ALA-free cells","[9]; HEK293, 0.5 mM 5-ALA",about 2.75 times
same,"intracellular PpIX concentration, increase compared with 5-ALA-free cells","[9]; HEK293, 1.0 mM 5-ALA",about 6.3 times
same,"intracellular PpIX concentration, increase compared with 5-ALA-free cells","[9]; HEK293, 2.0 mM 5-ALA",about 5.9 times
same,PpIX concentration in the HEK293 cell line (in words),[9]; culture conditions at 42° C.,increased depending on the 5-ALA concentration
